Calls of active or inactive are those of the source. How the calls were made is not given here.
System: M. tuberculosis H37Rv growth inhibition with meropenem
Assay: dose response, H37Rv, with and without meropenem (AID 434987);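 further: growth over 7 days at 37 °C before Alamar Blue read on day 9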
[1] = M. tuberculosis H37Rv growth inhibition, measured here: IC50 without meropenem
[2] = M. tuberculosis H37Rv growth inhibition, measured here: IC90 without meropenem
[3] = measured here: IC90 with meropenem

SMILES | IC50 | IC50 [1] [µM] | IC90 [2] [µM] | IC90 [3] [µM]
Cc1cccc2nc(COc3ccc4ccccc4c3Br)cn12 | 49 µM (inactive) | 47.5 | > 100 | > 100
CCc1ccc(NC(=O)C2C3/C=C\CCCCC32)cc1 (configuration not stated) | 72 µM (inactive) | > 100 | > 100 | > 100
Cn1c(O)c(C2=c3ccccc3=NC2=O)[nH]c1=S | 16.6 µM | > 100 | > 100 | > 100
CN1c2ccccc2C(=O)NC1c1ccc([N+](=O)[O-])s1 (configuration not stated) | 3.09 µM | 20.7 | 38.4 | 33.3
O=C(c1ccccc1)N1CCC(CC2CC(c3cccc(Br)c3)=NO2)(C(=O)NCC2CCCCC2)CC1 (configuration not stated) | 46.8 µM (inactive) | > 100 | > 100 | > 100
Cc1ccc(CN2CCSc3ccc(C(=O)NC4CCN(Cc5ccccc5)CC4)cc32)cc1 | > 100 µM (inactive) | > 100 | > 100 | > 100
Cc1ccc(/C=C2/SC(=S)N(CC(=O)Nc3ncc(Cc4ccc(C)cc4)s3)C2=O)cc1 | > 100 µM (inactive) | > 100 | > 100 | > 100
COc1ccc(S(=O)(=O)N(C(=O)c2ccncc2)c2ccc3oc4c(c3c2)CCCC4)cc1 | 99 µM (inactive) | 94.7 | > 100 | > 100
Cn1nnnc1Sc1ncnc2scc(-c3ccccc3)c12 | > 100 µM (inactive) | > 100 | > 100 | > 100
O=C(NCCC1=CCCCC1)c1ccc(Cl)c([N+](=O)[O-])c1 | 25.9 µM (inactive) | 54.3 | > 100 | 30.2
O=C1Nc2c(ccc(Cl)c2Cl)C(=O)C1(F)c1ccccc1 (configuration not stated) | 23.7 µM | 95.6 | > 100 | 71.7
O=C(NN1C(=O)c2cc(Br)ccc2NC1c1ccccc1Cl)c1ccncc1 (configuration not stated) | 12.5 µM | 35 | 50.7 | 13.7
O=C(Nc1nnc(-c2ccc3c(c2)OCCO3)o1)C1CCCCC1 | 16.3 µM | 55 | > 100 | > 100
COc1ccccc1NS(=O)(=O)c1cccc(N2CC(O)=C(c3ccccc3)C2=N)c1 | 8.71 µM (inactive) | 21.1 | > 100 | 16
Cc1ccc(OCC(=O)N/N=C/c2cn(C)c3ccccc23)cc1 | 24.7 µM | > 100 | > 100 | > 100
O=c1[nH]c(CN(CCO)CCO)nc2c1C1(CCCCC1)Cc1ccccc1-2 | 19.6 µM | > 100 | > 100 | > 100
COCCCn1c(=O)/c(=C\c2ccccc2OC(C)C)s/c1=C(/C#N)C(=O)Nc1ccc(C(=O)O)cc1 | 5.19 µM | 13.6 | > 100 | 18.5
c1ccc2c(c1)Cn1nc(Cc3nc4c(s3)CCCC4)nc1-2 | 47.5 µM (inactive) | 79.1 | > 100 | 53
Cc1cc2ccccn2c1C(=O)c1ccc([N+](=O)[O-])o1 | > 100 µM (inactive) | > 100 | > 100 | > 100
O=C(NN=C1CCCC1)c1cccs1 | 23.6 µM (inactive) | 50.3 | > 100 | > 100
Cc1nn(C)c(C)c1NC(=O)CCCSc1nc(-c2ccco2)cc(C(F)(F)F)n1 | > 100 µM (inactive) | > 100 | > 100 | > 100
Cc1nn(-c2ccccc2)cc1/C=N/NC(N)=S | 3.7 µM | > 100 | > 100 | > 100

SMILES | IC50 | IC50 [1] [µM] | IC90 [2] [µM] | IC90 [3] [µM]
COc1ccc(-c2csc(Nc3ccc(C)cn3)n2)cc1OC | 44.3 µM (inactive) | > 100 | > 100 | > 100
O=C(COn1nnc2ccc(Cl)cc21)NC12CC3CC(CC(C3)C1)C2 | > 100 µM (inactive) | > 100 | > 100 | > 100
N#Cc1ccccc1/C=N/Nc1nc(-c2ccccc2)c2cc(Br)ccc2n1 | > 100 µM (inactive) | > 100 | > 100 | > 100
CN(C)CC[C@@H](c1ccc(Br)cc1)c1ccccn1 | > 100 µM (inactive) | > 100 | > 100 | > 100
CS/C(N)=N/N=C/c1cc(Br)cc(Br)c1O | 19.7 µM (inactive) | 34.7 | > 100 | > 100
CC1=NN(c2ccccc2)C(=O)C1C=Nc1ccccc1O (configuration not stated) | > 100 µM (inactive) | > 100 | > 100 | > 100
COc1cc(C(=O)Oc2ccccc2/C=N/NC(=O)c2ccc(C)c(Cl)c2)cc(OC)c1OC | 1.96 µM | > 100 | > 100 | > 3.13
COc1ccc(C(=O)n2c(SC)nc3cc4c(cc32)OCCO4)cc1 | 34.3 µM | > 100 | > 100 | > 100
CCCCCC(=O)Nc1cccc(C2=NOC3(C2)C[C@@H](C(N)=O)N(C(=O)CC(c2ccccc2)c2ccccc2)C3)c1 (some centres not stated) | 51.6 µM (inactive) | > 100 | > 100 | > 100
O=C(NN=C(Cc1ccccc1)Cc1ccccc1)c1ccccc1F | 1.64 µM | > 100 | > 100 | > 50
CNC(=O)COC(=O)c1ccccc1NC(=O)c1ccco1 | 35.1 µM (inactive) | 47.1 | > 100 | > 100
Cc1cccc(/C=N\NC(=O)c2csnn2)c1 | 39.5 µM | > 100 | > 100 | > 100
Cc1ccc(-c2cc(C(=O)N/N=C/C=C/c3ccccc3)n[nH]2)o1 | > 100 µM (inactive) | > 100 | > 100 | > 100
O=C(CSCC(=O)Nc1ccccc1)N/N=C/c1c(O)ccc2ccccc12 | 31.9 µM | > 100 | > 100 | > 100
CCCCCCCN(C(=O)CCl)c1ccccc1C | 4.49 µM | 11.8 | 37.3 | 35.2
Cn1nnnc1Sc1ncnc2scc(-c3ccc(C(F)(F)F)cc3)c12 | 6.75 µM (inactive) | 14.3 | 24.4 | 15
COc1ccc(NC(=O)CN2CCN(C3c4ccccc4-c4ccccc43)CC2)c(OC)c1 | > 100 µM (inactive) | > 100 | > 100 | > 100
CC1CC2(CCCCC2)Nc2ccc3ccccc3c21 (configuration not stated) | 49.1 µM (inactive) | 86.1 | 96 | > 100
c1ccc(Nc2ncnc3c2oc2ccccc23)cc1 | 2 µM | > 100 | > 100 | > 100
CCOC(=O)c1cnn(-c2ncnc3sc4c(c23)CCC4)c1N | 23.6 µM | > 100 | > 100 | > 50
Cc1ccc(C(=O)NCCc2nnc3ccc(SCC(=O)Nc4ccccc4C)nn23)cc1 | > 100 µM (inactive) | > 100 | > 100 | > 100

Source: PubChem BioAssay AID434987 (Southern Research Specialized Biocontainment Screening …, 2010)
